Data: patent US5006540A, “Substituted 3-aminosydnonimines, processes for their preparation and their use” (Cassella Aktiengesellschaft, priority 1988, dated 1991)
Counter-ions that a name gives are not always drawn.

tested on: spiral strips of the arteria pulmonalis of the guinea pig; assay: Relaxing action on K+-depolarized, CaCl2-contracted spiral strips of guinea pig arteria pulmonalis (modified method of Godfraind and Kaba and of Schumann et al.); settings: Cavia porcellus; depolarized with 40 mmol/l potassium in calcium-free Tyrode solution; contraction by 0.5 mmol/l CaCl2; cumulative addition; mean value of 4 to 6 strips of vessel; read-out: IC50: concentration of test substance which inhibits the contraction by 50%
Text: The pharmacological action of the compound of the formula I has been determined by a modified method of Godfraind and Kaba (Arch. Int. Pharmacodyn. Ther. 196, (Suppl) 35 to 49, 1972) and of Schumann et al. (Naunyn-Schmiedeberg's Arch. Pharmacol. 289, 409 to 418, 1975). In this method, spiral strips of the arteria pulmonalis of the guinea pig are depolarized with 40 mmol/l of potassium after equilibration in calcium-free Tyrode solution. Addition of 0.5 mmol/l of CaCl2 then induces a contraction. The relaxing action of the test substance is determined by cumulative addition of concentrations graduated in 1/2 log 10. The concentration of test substance which inhibits the contraction by 50% (=IC50, mol/l) is determined from the concentration/ effect curve (abscissa: -log mol/l of test substance, ordinate: % inhibition of the maximum contraction, mean value of 4 to 6 strips of vessel). The IC50 values thus obtained are stated in the following table.

Point of comparison: `N=c1c[n+](NCCO)[n-]o1` [Example 1a, 3-(2-Hydroxyethylamino)-sydnonimine hydrochloride], IC50 2000 nM. Against it:
- N=c1c[n+](NC2CCCCC2)[n-]o1 [Example 4e, 3-Cyclohexylamino-sydnonimine hydrochloride] — the same, 2000 nM
- CCN[n+]1cc(=N)o[n-]1 [Example 2, 3-Ethylamino-sydnonimine hydrochloride] — the same, 2000 nM
- CCOC(=O)[N-]c1cn(N2CCOCC2)n[o+]1 [Molsidomine, N-ethoxycarbonyl-3-morpholino-sydnonimine, reference compound] — higher, > 100000 nM
- N=c1c[n+](NC2CCCCC2O)[n-]o1 (centres unmarked) [Example 5b, 3-(2-Hydroxycyclohexyl-amino)-sydnonimine hydrochloride] — 2-fold lower, 1000 nM
